{
  "source": "patent US6310247A",
  "about": "“7-aryl-6(Z)-heptatrienoic acid retinamides” (Hoffmann-LA Roche Inc., priority 1999, dated 2001)",
  "key": {"MDA-435 cells": {"tested_on": "MDA-435 cells", "assay": "Apoptosis: cell death detection by ELISA, MDA-435", "type": "cell-based, human", "settings": "for fold induction at 1 µM / fold induction at 3.3 µM / fold induction at 10 µM: Homo sapiens, read-out: Fold induction of apoptosis compared to no drug control", "description": "(§1) ER- breast carcinoma, human (MDA-435) obtained from Dr. Janet Price, MDA Cancer Center, Houston, Tex., were grown in Gibco's RPMI 1640 media supplemented with sodium pyruvate, 10% FBS and 13 ng/mL gentamicin. Cells were incubated at 37° C., 4.5% CO2 and 95.5% humidified air.\n(§2) 2. Apoptosis: Cell death detection by ELISA:\n(§3) Compounds of formula 1 were tested for the ability to cause apoptosis as follows:\n(§4) Cells and media were collected, cells were pelleted, resuspended in 100 μl lysis buffer (50 mM Tris-Cl (pH=8.0), 20 mM EDTA, 1% NP-40e) and incubated 30 minutes at 4° C. to lyse. Cell debris was spun down and an aliquot (30 μl) of the […] was removed for protein determination and stored at -20° C. An additional 280 μl of lysis buffer, was added, mixed thoroughly and spun down at 14,000 RPM for 10 minutes at 4° C. An aliquot was removed (180 μl) and the sample was stored at -20° C. until testing.\n(§5) A commercially available apoptosis detection kit, obtained from Boehringer Mannheim (Cat. No. 1544-674), was used as per the directions provided with the kit (Cell Death Detection ELISA). However, the protocol was modified in that a 1:40 to 1:100 dilution of sample was prepared, rather than the recommended 1:10 dilution, due to the increase in cell number used to prepare the sample extract and the subsequent increase in ELISA reactivity. The assay measures apoptosis by quantifying the amount of nucleosomal fragmentation from the extracts of cells treated with the test compounds (samples). These nucleosomal fragments, generated by the activation of endonucleases, are a known downstream effector of apoptosis. Antihistone antibodies are used to fix any nucleosomal fragments in the sample to the well of the microtiter plates. The sample is then incubated with anti-DNA antibodies conjugated to peroxidase and subsequently incubated with the peroxidase substrate, ABTS. The resulting colorimetric change is measured spectrophotometrically at 405/490nm.\n(§6) The total protein content of each sample was determined for the purpose of normalizing the ELISA values to amount of sample loaded. Microplate assay protocol described in the instruction manual, for (Biorad DC Assay, Cat.#500-0116) section 5.2. The protein concentrations were calculated based upon a linear regression curve.\n(§7) d) ELISA assay calculations\n(§8) Relative ELISA O.D. readings are determined by subtracting the ELISA plate background O.D. value. No drug control O.D. value (lysis buffer only) was subtracted from sample O.D. value. A correction coefficient (CC), based on the sample protein concentration compared to no drug control, was determined to correct the sample O.D. following subtraction of the background O.D. (BCS O.D.). The fold increase over no drug control is calculated and normalized to the total protein concentration of the samples by multiplying against the correction coefficient.\n(§9) To determine the fold increase in ELISA O.D., obtain the following O.D. measurements:\n(§10) ELISA plate background--lysis buffer only (EPB);\n(§11) no drug treated control--cell sample treated with DMSO (NDT);\n(§12) drug treated sample--cell sample treated with a compound of formula 1 (DT) Subtract EPB from NDT (NDT-EPB) and DT (DT-EPB). The fold increase of the treated over the control is then (DT-EPB)/(NDT-EPB).\n(§13) To determine the total protein concentration of the samples, obtain the total protein concentration in mg/ul calculated using standard linear regression formula (y=mx+b) based on BSA standards. B=ELISA background. Protein concentration (PC)(mg/ml)=(sample absorbance-b)/x.\n(§14) Correction coefficient (cc) is (NDT)(PC)/(DT)(PC).\n(§15) Determine fold increase of ELISA (FT) normalized to total PC:\n(§16) nDT is DT×cc (which is DT O.D. normalized to PC)\n(§17) nNDT is NDT×cc (which is NDT O.D. normalized to PC)\n(§18) FI normalized to PC is nDT/nNDT."}, "MDA 435 cells": {"tested_on": "MDA 435 cells", "assay": "Cell growth inhibition: MTT assay, MDA 435 (ER- breast carcinoma)", "type": "cell-based", "settings": "Homo sapiens, MDA435, read-out: % inhibition of cell growth compared to no drug control", "description": "as §1\n1. Cell growth inhibition: MTT Assay\nThe compounds of formula 1 were tested for ability to inhibit cell growth using the standard MTT assay, a tetrazolium-based assay which measures the viability of cells in culture. Cells were harvested upon reaching 70-80% confluency and pelleted. The cells were then resuspended in medium in which FBS was replaced with Hyclone's Charcoal/Dextran stripped FBS, and seeded (2 mL/well) into 6-well plates (Corning) at a density allowing for linear growth over a four day assay period. Compounds of formula 1 (10 mM stock in dimethylsulfoxide (DMSO)) were added 18-24 hours post-seeding. Compound dilutions were prepared in the appropriate growth media and added to the cells for final concentrations of 10, 3.3 and 1 μM in 0.1% DMSO. At 24, 48 and 72 hr. time points, MTT (3-[4,5-dimethylthiazol-2-yl-2,5-diphenyltetrazolium bromide) stock solution (5mg/mL in 1 PBS) was added to the cells plates (625 μL/well) which were then incubated for 2.5 hours. Liquid was aspirated from the wells and 1 mL/well of 95% ethanol was added to solubilize the formazan reaction product. The plates were shaken (Bellco Mini-Orbital Shaker) for 15 minutes. The solubilized formazan was then transferred (50 μls) into a 96-well plate and the optical densities (OD) were measured (Bio-Tek Microplate Reader) at 570 nm and reference wavelength of 660 nm. Percentage of inhibition of cell growth was calculated according to the following formula: [formula]"}, "ZR-75-1 cells": {"tested_on": "ZR-75-1 cells", "assay": "Apoptosis: cell death detection by ELISA, ZR-75-1", "type": "cell-based, human", "settings": "for fold induction at 1 µM / fold induction at 3.3 µM / fold induction at 10 µM: Homo sapiens, read-out: Fold induction of apoptosis compared to no drug control", "description": "ER+ breast carcinoma, human (ZR-75-1) obtained from ATCC (CRL 1500), were grown in Gibco's RPMI 1640 media supplemented with sodium pyruvate, 10% FBS and 13 ng/mL gentamicin. Cells were incubated at 37° C., 4.5% CO2 and 95.5% humidified air.\nas §2, §3, §4, §5, §6, §7, §8, §9, §10, §11, §12, §13, §14, §15, §16, §17, §18"}},
  "note": "Like-named read-outs stand apart in the source and are kept apart here.",
  "data": [
    {"molecule": "C/C(=C/C=C/C(C)=C/C(=O)Nc1ccc(O)cc1)c1cc(C(F)(F)F)cc(C(F)(F)F)c1", "note": "[N-(4-hydroxyphenyl)-(2E,4E,6Z)-7-[3,5-bis(trifluoromethyl)phenyl]-3,7-dimethyl-2,4,6-heptatrienamide]", "values": [
      {"measurement": "fold induction at 1 µM", "setting": "MDA-435 cells; MDA435, 24 h, 24 hrs", "result": 3},
      {"measurement": "fold induction at 3.3 µM", "setting": "MDA-435 cells; MDA435, 24 h, 24 hrs", "result": 6},
      {"measurement": "fold induction at 10 µM", "setting": "MDA-435 cells; MDA435, 24 h, 24 hrs", "result": 6},
      {"measurement": "fold induction at 1 µM", "setting": "MDA-435 cells; MDA435, 48 h, 48 hrs", "result": 3},
      {"measurement": "fold induction at 3.3 µM", "setting": "MDA-435 cells; MDA435, 48 h, 48 hrs", "result": 10},
      {"measurement": "fold induction at 10 µM", "setting": "MDA-435 cells; MDA435, 48 h, 48 hrs", "result": 16},
      {"measurement": "fold induction at 1 µM", "setting": "MDA-435 cells; MDA435, 72 h, 72 hrs", "result": 4},
      {"measurement": "fold induction at 3.3 µM", "setting": "MDA-435 cells; MDA435, 72 h, 72 hrs", "result": 12},
      {"measurement": "fold induction at 10 µM", "setting": "MDA-435 cells; MDA435, 72 h, 72 hrs", "result": 34},
      {"measurement": "Induction of apoptosis (in words)", "setting": "MDA-435 cells; after 24 hours", "result": "induces significant apoptosis"},
      {"measurement": "inhibition at 1 µM", "setting": "MDA 435 cells; 24 hours", "result": 47, "unit": "%"},
      {"measurement": "inhibition at 3.3 µM", "setting": "MDA 435 cells; 24 hours", "result": 78, "unit": "%"},
      {"measurement": "inhibition at 10 µM", "setting": "MDA 435 cells; 24 hours", "result": 77, "unit": "%"},
      {"measurement": "inhibition at 1 µM", "setting": "MDA 435 cells; 48 hours", "result": 59, "unit": "%"},
      {"measurement": "inhibition at 3.3 µM", "setting": "MDA 435 cells; 48 hours", "result": 91, "unit": "%"},
      {"measurement": "inhibition at 10 µM", "setting": "MDA 435 cells; 48 hours", "result": 95, "unit": "%"},
      {"measurement": "inhibition at 1 µM", "setting": "MDA 435 cells; 72 hours", "result": 94, "unit": "%"},
      {"measurement": "inhibition at 3.3 µM", "setting": "MDA 435 cells; 72 hours", "result": 96, "unit": "%"},
      {"measurement": "inhibition at 10 µM", "setting": "MDA 435 cells; 72 hours", "result": 98, "unit": "%"},
      {"measurement": "fold induction at 1 µM", "setting": "ZR-75-1 cells; ZR-75-1, 24 h, 24 hrs", "result": 2},
      {"measurement": "fold induction at 3.3 µM", "setting": "ZR-75-1 cells; ZR-75-1, 24 h, 24 hrs", "result": 2},
      {"measurement": "fold induction at 10 µM", "setting": "ZR-75-1 cells; ZR-75-1, 24 h, 24 hrs", "result": 3},
      {"measurement": "fold induction at 1 µM", "setting": "ZR-75-1 cells; ZR-75-1, 48 h, 48 hrs", "result": 2},
      {"measurement": "fold induction at 3.3 µM", "setting": "ZR-75-1 cells; ZR-75-1, 48 h, 48 hrs", "result": 19},
      {"measurement": "fold induction at 10 µM", "setting": "ZR-75-1 cells; ZR-75-1, 48 h, 48 hrs", "result": 15},
      {"measurement": "fold induction at 1 µM", "setting": "ZR-75-1 cells; ZR-75-1, 72 h, 72 hrs", "result": 2},
      {"measurement": "fold induction at 3.3 µM", "setting": "ZR-75-1 cells; ZR-75-1, 72 h, 72 hrs", "result": 69},
      {"measurement": "fold induction at 10 µM", "setting": "ZR-75-1 cells; ZR-75-1, 72 h, 72 hrs", "result": 67},
      {"measurement": "Induction of apoptosis (in words)", "setting": "ZR-75-1 cells; after 48 hours", "result": "induces significant apoptosis"}
    ]}
  ]
}
